# According to ChEMBL document CHEMBL4334464, “From Phenylthiazoles to Phenylpyrazoles: Broadening the Antibacterial Spectrum toward Carbapenem-Resistant Bacteria” (J Med Chem, 2019):
# Activity calls are given as the source filed them. No cut-off for these calls is given here.
# Experiments:
# [1] = test system: Staphylococcus aureus; test: Antibacterial activity against methicillin-resistant Staphylococcus aureus NRS384-USA300 clinical isolates after 18 to 20 hrs in aerobic condition by CLSI protocol based broth microdilution assay; format: functional
# [2] = test system: Staphylococcus aureus; test: Antibacterial activity against Methicillin-sensitive Staphylococcus aureus NRS107 clinical isolates after 18 to 20 hrs in aerobic condition by CLSI protocol based broth microdilution assay; format: functional
# [3] = test system: Staphylococcus aureus; test: Antibacterial activity against linezolid-resistant/Methicillin-resistant Staphylococcus aureus NRS119 clinical isolates after 18 to 20 hrs in aerobic condition by CLSI protocol based broth microdilution assay; format: functional
# [4] = test system: Staphylococcus aureus; test: Antibacterial activity against Methicillin-resistant Staphylococcus aureus NRS385-USA500 clinical isolates after 18 to 20 hrs in aerobic condition by CLSI protocol based broth microdilution assay; format: functional
# [5] = test system: Staphylococcus aureus; test: Antibacterial activity against Methicillin-resistant Staphylococcus aureus USA700-NRS386 clinical isolates after 18 to 20 hrs in aerobic condition by CLSI protocol based broth microdilution assay; format: functional
# [6] = test system: Staphylococcus aureus; test: Antibacterial activity against vancomycin-resistant Staphylococcus aureus isolate 10 after 18 to 20 hrs in aerobic condition by CLSI-based broth microdilution assay; format: functional
# [7] = test system: Staphylococcus aureus; test: Antibacterial activity against vancomycin-resistant Staphylococcus aureus isolate 12 after 18 to 20 hrs in aerobic condition by CLSI-based broth microdilution assay; format: functional
# [8] = test system: Staphylococcus aureus; test: Bactericidal activity against methicillin-resistant Staphylococcus aureus NRS123-USA400 clinical isolates at 5 times MIC incubated over 24 hrs followed by replating on tryptic soy agar plate and further incubated for 18 to 20 hrs by time kill assay; format: functional, organism-based
# [9] = test system: Acinetobacter baumannii; test: Antibacterial activity against Acinetobacter baumannii ATCC BAA 1141 clinical isolates after 18 to 20 hrs in aerobic condition by CLSI-based broth microdilution assay; format: functional
# [10] = test system: Acinetobacter baumannii; test: Antibacterial activity against Acinetobacter baumannii NR 17786 clinical isolates after 18 to 20 hrs in aerobic condition by CLSI-based broth microdilution assay; format: functional
# [11] = test system: Escherichia coli; test: Antibacterial activity against Escherichia coli BW25113 clinical isolates after 18 to 20 hrs in aerobic condition by CLSI-based broth microdilution assay; format: functional
# [12] = test system: Escherichia coli; test: Antibacterial activity against Escherichia coli ATCC 35150 clinical isolates after 18 to 20 hrs in aerobic condition by CLSI-based broth microdilution assay; format: functional
# [13] = Antibacterial activity against Enterobacter cloacae subsp. cloacae ATCC BAA-1143 clinical isolates after 18 to 20 hrs in aerobic condition by CLSI-based broth microdilution assay; format: functional
# [14] = test system: Salmonella enterica; test: Antibacterial activity against Salmonella enterica NR-170 clinical isolates after 18 to 20 hrs in aerobic condition by CLSI-based broth microdilution assay; format: functional
# [15] = test system: Salmonella enteritidis; test: Antibacterial activity against Salmonella enteritidis ATCC 13076 clinical isolates after 18 to 20 hrs in aerobic condition by CLSI-based broth microdilution assay; format: functional, Salmonella enterica subsp. enterica serovar Enteritidis; details: Salmonella enterica
# [16] = test system: Pseudomonas aeruginosa; test: Antibacterial activity against Pseudomonas aeruginosa ATCC 15442 clinical isolates after 18 to 20 hrs in aerobic condition by CLSI-based broth microdilution assay; format: functional
# [17] = test system: Escherichia coli; test: Antibacterial activity against carbapenem-resistant Escherichia coli BAA-2452 clinical isolates after 18 to 20 hrs in aerobic condition by CLSI-based broth microdilution assay; format: functional
# [18] = test system: Escherichia coli; test: Antibacterial activity against carbapenem-resistant Escherichia coli BAA-2469 clinical isolates after 18 to 20 hrs in aerobic condition by CLSI-based broth microdilution assay; format: functional
# [19] = test system: Klebsiella pneumoniae; test: Antibacterial activity against carbapenem-resistant Klebsiella pneumoniae ATCC BAA-1705 clinical isolates after 18 to 20 hrs in aerobic condition by CLSI-based broth microdilution assay; format: functional
# [20] = test system: Klebsiella pneumoniae; test: Antibacterial activity against carbapenem-resistant Klebsiella pneumoniae ATCC BAA-2146 clinical isolates after 18 to 20 hrs in aerobic condition by CLSI-based broth microdilution assay; format: functional
# [21] = test system: Acinetobacter baumannii; test: Antibacterial activity against carbapenem-resistant Acinetobacter baumannii ATCC BAA 1605 clinical isolates after 18 to 20 hrs in aerobic condition by CLSI-based broth microdilution assay; format: functional
# [22] = test system: Pseudomonas aeruginosa; test: Antibacterial activity against carbapenem-resistant Pseudomonas aeruginosa ATCC 1744 clinical isolates after 18 to 20 hrs in aerobic condition by CLSI-based broth microdilution assay; format: functional
# [23] = test system: Escherichia coli; test: Inhibition of 6His tagged Escherichia coli UPPP expressed in Escherichia coli C41(DE3) cells preincubated for 15 mins followed by FPP substrate addition and measured after 20 mins by malachite green reagent based assay
# [24] = test system: Staphylococcus aureus; test: Ratio of MBC to MIC for Methicillin-sensitive Staphylococcus aureus ATCC 6538 clinical isolates; format: functional
# [25] = test system: Staphylococcus epidermidis; test: Ratio of MBC to MIC for Staphylococcus epidermidis NRS101 clinical isolates; format: functional
# [26] = test system: Enterococcus faecalis; test: Ratio of MBC to MIC for vancomycin-resistant Enterococcus faecalis ATCC 51299 clinical isolates; format: functional
# [27] = test system: Enterococcus faecium; test: Ratio of MBC to MIC for vancomycin-resistant Enterococcus faecium ATCC 700221 clinical isolates; format: functional
# [28] = test system: Streptococcus pneumoniae; test: Ratio of MBC to MIC for cephalosporin-resistant Streptococcus pneumoniae ATCC 51916 clinical isolates; format: functional
# [29] = test system: Acinetobacter baumannii; test: Ratio of MBC to MIC for Acinetobacter baumannii ATCC BAA 1141 clinical isolates; format: functional
# [30] = test system: Acinetobacter baumannii; test: Ratio of MBC to MIC for Acinetobacter baumannii ATCC BAA 1747 clinical isolates; format: functional
# [31] = test system: Acinetobacter baumannii; test: Ratio of MBC to MIC for Acinetobacter baumannii NR 17785 clinical isolates; format: functional
# [32] = test system: Acinetobacter baumannii; test: Ratio of MBC to MIC for Acinetobacter baumannii NR 17786 clinical isolates; format: functional
# [33] = test system: Escherichia coli; test: Ratio of MBC to MIC for Escherichia coli ATCC 1411 clinical isolates; format: functional
# [34] = test system: Enterobacter cloacae subsp. cloacae; test: Ratio of MBC to MIC for Enterobacter cloacae subsp. cloacae ATCC BAA-1143 clinical isolates; format: functional
# [35] = test system: Klebsiella pneumoniae; test: Ratio of MBC to MIC for Klebsiella pneumoniae BAA-1706 after 18 to 20 hrs in aerobic condition by CLSI-based broth microdilution assay; format: functional
# [36] = test system: Klebsiella pneumoniae; test: Ratio of MBC to MIC for Klebsiella pneumoniae BAA-1144 clinical isolates; format: functional
# [37] = test system: Shigella flexneri; test: Ratio of MBC to MIC for Shigella flexneri ATCC 9199 clinical isolates; format: functional
# [38] = test system: Pseudomonas aeruginosa; test: Ratio of MBC to MIC for Pseudomonas aeruginosa ATCC 9027 clinical isolates; format: functional
# [39] = test system: Pseudomonas aeruginosa; test: Ratio of MBC to MIC for Pseudomonas aeruginosa ATCC 25619 clinical isolates; format: functional
# [40] = test system: Pseudomonas aeruginosa; test: Ratio of MBC to MIC for Pseudomonas aeruginosa ATCC 15442 clinical isolates; format: functional
# [41] = test system: Clostridioides difficile; test: Ratio of MBC to MIC for Clostridium difficile ATCC BAA 1870; format: functional
# [42] = test system: Acinetobacter baumannii; test: microbe, parasite or virus in culture; details: ATCC BAA 1747
# Description: Antibacterial activity against Acinetobacter baumannii ATCC BAA 1747 after 18 to 20 hrs in aerobic condition by CLSI-based broth microdilution assay
# [43] = test system: Pseudomonas aeruginosa; test: microbe, parasite or virus in culture; details: ATCC 9027
# Description: Antibacterial activity against Pseudomonas aeruginosa ATCC 9027 clinical isolates after 18 to 20 hrs in aerobic condition by CLSI-based broth microdilution assay
# [44] = test system: Pseudomonas aeruginosa; test: microbe, parasite or virus in culture; details: ATCC 25619
# Description: Antibacterial activity against Pseudomonas aeruginosa ATCC 25619 clinical isolates after 18 to 20 hrs in aerobic condition by CLSI-based broth microdilution assay
smiles,measurement,setting,value
C/C(=N\NC(=N)N)c1cnn(-c2ccc(C#Cc3ccccc3)cc2)c1C,MIC,[1],1 µg/mL
same,MIC,[2],2 µg/mL
same,MIC,[3],1 µg/mL
same,MIC,[4],1 µg/mL
same,MIC,[5],2 µg/mL
same,MIC,[6],1 µg/mL
same,MIC,[7],2 µg/mL
same,Activity,[8],Active
same,MIC,[9],4 µg/mL
same,MIC,[10],8 µg/mL
same,MIC,[11],8 µg/mL
same,MIC,[12],8 µg/mL
same,MIC,[13],8 µg/mL
same,MIC,[14],8 µg/mL
same,MIC,[15],8 µg/mL
same,MIC,[16],32 µg/mL
same,MIC,[17],8 µg/mL
same,MIC,[18],8 µg/mL
same,MIC,[19],16 µg/mL
same,MIC,[20],16 µg/mL
same,MIC,[21],4 µg/mL
same,MIC,[22],16 µg/mL
same,inhibition,[23],inactive
same,Ratio,[24],<=2
same,Ratio,[25],<3
same,Ratio,[26],<3
same,Ratio,[27],<3
same,Ratio,[28],<3
same,Ratio,[29],>=1
same,Ratio,[30],>=1
same,Ratio,[31],>=1
same,Ratio,[32],>=1
same,Ratio,[33],>=1
same,Ratio,[34],> 1
same,Ratio,[35],>=1
same,Ratio,[36],>=1
same,Ratio,[37],>=1
same,Ratio,[38],>=1
same,Ratio,[39],>=1
same,Ratio,[40],>=1
same,Ratio,[41],<3
same,MIC,[42],4 µg/mL
same,MIC,[43],16 µg/mL
same,MIC,[44],32 µg/mL
CCCCCC#Cc1ccc(-n2ncc(/C(C)=N/NC3=NCCN3)c2C)cc1,MIC,[1],2 µg/mL
same,MIC,[2],4 µg/mL
same,MIC,[3],2 µg/mL
same,MIC,[4],2 µg/mL
same,MIC,[5],2 µg/mL
same,MIC,[6],2 µg/mL
same,MIC,[7],2 µg/mL
same,Activity,[8],Active
same,MIC,[9],> 128 µg/mL
same,MIC,[10],> 128 µg/mL
same,MIC,[11],> 128 µg/mL
same,MIC,[12],> 128 µg/mL
same,MIC,[13],> 128 µg/mL
same,MIC,[14],> 128 µg/mL
same,MIC,[15],> 128 µg/mL
same,MIC,[16],> 128 µg/mL
same,inhibition,[23],inactive
same,Ratio,[24],<=2
same,Ratio,[25],<3
same,Ratio,[26],<3
same,Ratio,[27],<3
same,Ratio,[28],<3
same,Ratio,[29],>=1
same,Ratio,[30],>=1
same,Ratio,[31],>=1
same,Ratio,[32],>=1
same,Ratio,[33],>=1
same,Ratio,[34],> 1
same,Ratio,[35],>=1
same,Ratio,[36],>=1
same,Ratio,[37],>=1
same,Ratio,[38],>=1
same,Ratio,[39],>=1
same,Ratio,[40],>=1
same,Ratio,[41],<3
same,MIC,[42],> 128 µg/mL
same,MIC,[43],> 128 µg/mL
same,MIC,[44],> 128 µg/mL
